Measurements from the NIST ThermoML archive (doi:10.1007/s10765-016-2109-2).
± gives the expanded uncertainty stated by the source.

Key:
[1] = Liquid, isochoric method
[2] = molar heat capacity at constant volume; details: Liquid, Vacuum adiabatic calorimetry

CCCCCC[n+]1ccn(C)c1.O=S(=O)([N-]S(=O)(=O)C(F)(F)F)C(F)(F)F
[1]
Details | mass density [kg/m3]
325.26 K | 1344.14 ± 3.3
350.36 K | 1323.92 ± 3.2

[2]
Details | molar heat capacity at constant volume [J/K/mol]
325.26 K, Mass density=1344.14 kg/m3 | 609.39 ± 37
325.39 K, Mass density=1344.14 kg/m3 | 608.49 ± 37
325.51 K, Mass density=1344.14 kg/m3 | 608.94 ± 37
325.63 K, Mass density=1344.14 kg/m3 | 608.49 ± 37
325.75 K, Mass density=1344.14 kg/m3 | 609.83 ± 37
325.88 K, Mass density=1344.14 kg/m3 | 608.94 ± 37
326 K, Mass density=1344.14 kg/m3 | 608.04 ± 37
326.13 K, Mass density=1344.14 kg/m3 | 606.7 ± 36
326.26 K, Mass density=1344.14 kg/m3 | 608.49 ± 37
328.58 K, Mass density=1344.14 kg/m3 | 609.83 ± 37
328.7 K, Mass density=1344.14 kg/m3 | 608.49 ± 37
328.82 K, Mass density=1344.14 kg/m3 | 607.6 ± 36
328.94 K, Mass density=1344.14 kg/m3 | 606.25 ± 36
329.07 K, Mass density=1344.14 kg/m3 | 607.15 ± 36
329.19 K, Mass density=1344.14 kg/m3 | 609.39 ± 37
329.31 K, Mass density=1344.14 kg/m3 | 609.83 ± 37
329.43 K, Mass density=1344.14 kg/m3 | 605.36 ± 36
333.09 K, Mass density=1344.14 kg/m3 | 612.07 ± 37
333.21 K, Mass density=1344.14 kg/m3 | 606.25 ± 36
333.33 K, Mass density=1344.14 kg/m3 | 609.39 ± 37
333.45 K, Mass density=1344.14 kg/m3 | 613.86 ± 37
333.57 K, Mass density=1344.14 kg/m3 | 607.6 ± 36
333.7 K, Mass density=1344.14 kg/m3 | 610.73 ± 37
333.82 K, Mass density=1344.14 kg/m3 | 613.41 ± 37
333.94 K, Mass density=1344.14 kg/m3 | 609.83 ± 37
341.28 K, Mass density=1344.14 kg/m3 | 615.2 ± 37
341.4 K, Mass density=1344.14 kg/m3 | 610.73 ± 37
341.52 K, Mass density=1344.14 kg/m3 | 617.44 ± 37
341.64 K, Mass density=1344.14 kg/m3 | 612.96 ± 37
341.76 K, Mass density=1344.14 kg/m3 | 620.12 ± 37
341.88 K, Mass density=1344.14 kg/m3 | 615.65 ± 37
342 K, Mass density=1344.14 kg/m3 | 614.75 ± 37
342.12 K, Mass density=1344.14 kg/m3 | 618.78 ± 37
348.64 K, Mass density=1344.14 kg/m3 | 619.23 ± 37
348.76 K, Mass density=1344.14 kg/m3 | 617.89 ± 37
348.88 K, Mass density=1344.14 kg/m3 | 621.91 ± 37
348.99 K, Mass density=1344.14 kg/m3 | 620.12 ± 37
349.11 K, Mass density=1344.14 kg/m3 | 618.78 ± 37
349.23 K, Mass density=1344.14 kg/m3 | 623.7 ± 38
349.35 K, Mass density=1344.14 kg/m3 | 617.44 ± 37
349.47 K, Mass density=1344.14 kg/m3 | 622.81 ± 38
349.58 K, Mass density=1344.14 kg/m3 | 619.68 ± 37
350.36 K, Mass density=1323.92 kg/m3 | 625.05 ± 38
350.41 K, Mass density=1323.92 kg/m3 | 624.15 ± 38
350.53 K, Mass density=1323.92 kg/m3 | 623.26 ± 38
350.64 K, Mass density=1323.92 kg/m3 | 622.36 ± 37
350.76 K, Mass density=1323.92 kg/m3 | 625.49 ± 38
350.88 K, Mass density=1323.92 kg/m3 | 624.6 ± 38
350.99 K, Mass density=1323.92 kg/m3 | 621.02 ± 37
351.11 K, Mass density=1323.92 kg/m3 | 621.91 ± 37
351.23 K, Mass density=1323.92 kg/m3 | 623.26 ± 38
351.35 K, Mass density=1323.92 kg/m3 | 620.12 ± 37
351.46 K, Mass density=1323.92 kg/m3 | 621.02 ± 37
351.58 K, Mass density=1323.92 kg/m3 | 622.36 ± 37
351.7 K, Mass density=1323.92 kg/m3 | 620.57 ± 37
351.82 K, Mass density=1323.92 kg/m3 | 621.47 ± 37
351.93 K, Mass density=1323.92 kg/m3 | 619.68 ± 37
352.03 K, Mass density=1323.92 kg/m3 | 621.47 ± 37
360.03 K, Mass density=1323.92 kg/m3 | 626.39 ± 38
360.19 K, Mass density=1323.92 kg/m3 | 624.15 ± 38
360.3 K, Mass density=1323.92 kg/m3 | 628.18 ± 38
360.42 K, Mass density=1323.92 kg/m3 | 622.81 ± 38
360.53 K, Mass density=1323.92 kg/m3 | 625.05 ± 38
360.65 K, Mass density=1323.92 kg/m3 | 622.36 ± 37
360.76 K, Mass density=1323.92 kg/m3 | 623.26 ± 38
360.88 K, Mass density=1323.92 kg/m3 | 621.02 ± 37
360.99 K, Mass density=1323.92 kg/m3 | 621.47 ± 37
361.11 K, Mass density=1323.92 kg/m3 | 622.81 ± 38
361.22 K, Mass density=1323.92 kg/m3 | 620.57 ± 37
361.34 K, Mass density=1323.92 kg/m3 | 627.28 ± 38
365.26 K, Mass density=1323.92 kg/m3 | 624.15 ± 38
365.35 K, Mass density=1323.92 kg/m3 | 629.52 ± 38
365.47 K, Mass density=1323.92 kg/m3 | 627.28 ± 38
365.58 K, Mass density=1323.92 kg/m3 | 625.49 ± 38
365.69 K, Mass density=1323.92 kg/m3 | 632.65 ± 38
365.81 K, Mass density=1323.92 kg/m3 | 622.36 ± 37
365.92 K, Mass density=1323.92 kg/m3 | 629.07 ± 38
366.04 K, Mass density=1323.92 kg/m3 | 627.28 ± 38
366.15 K, Mass density=1323.92 kg/m3 | 630.41 ± 38
366.27 K, Mass density=1323.92 kg/m3 | 623.7 ± 38
366.38 K, Mass density=1323.92 kg/m3 | 629.97 ± 38
372.87 K, Mass density=1323.92 kg/m3 | 635.78 ± 38
372.96 K, Mass density=1323.92 kg/m3 | 634.44 ± 38
373.07 K, Mass density=1323.92 kg/m3 | 631.76 ± 38
373.18 K, Mass density=1323.92 kg/m3 | 633.1 ± 38
373.29 K, Mass density=1323.92 kg/m3 | 636.68 ± 38
373.41 K, Mass density=1323.92 kg/m3 | 629.07 ± 38
373.52 K, Mass density=1323.92 kg/m3 | 634.89 ± 38
373.63 K, Mass density=1323.92 kg/m3 | 629.97 ± 38
373.74 K, Mass density=1323.92 kg/m3 | 631.31 ± 38
373.86 K, Mass density=1323.92 kg/m3 | 638.02 ± 38
373.97 K, Mass density=1323.92 kg/m3 | 636.68 ± 38
374.08 K, Mass density=1323.92 kg/m3 | 638.92 ± 38
